Broadly, the pIC50 is the IC50 on a negative log10 scale, so that one unit is a factor of ten. A low value points to a large IC50.

Data on one compound can be found in US8183271B2, “Tetrazole derivatives and their use for the treatment of cardiovascular diseases” (Bayer Intellectual Property GmbH, priority 2005, dated 2012).

For one experiment, the system named is saphenous artery rings. Put plainly: Vasorelaxant effect in vitro (phenylephrine-contracted artery rings). The class given is cell-based, Rabbits. To be noted: rabbit saphenous artery rings, contraction induced by phenylephrine. Here is the method:
Rabbits are anesthetized and sacrificed by intravenous injection of thiopental sodium (about 50 mg/kg) and exsanguinated. The saphenous artery is removed and divided into rings 3 mm wide. The rings are mounted singly on in each case a pair of triangular hooks open at the end and made of 0.3 mm-thick special wire (Remanium®). Each ring is placed under an initial tension in 5 ml organ baths with Krebs-Henseleit solution which is at 37° C., is gassed with 95% O2/5% CO2 and has the following composition: NaCl 119 mM; KCl 4.8 mM; CaCl2×2H2O 1 mM; MgSO4×7H2O 1.4 mM; KH2PO4 1.2 mM; NaHCO3 25 mM; glucose 10 mM; bovine serum albumin 0.001%. The force of contraction is detected with Statham UC2 cells, amplified and digitized via A/D converters (DAS-1802 HC, Keithley Instruments, Munich) and recorded in parallel on chart recorders. Contractions are induced by addition of phenylephrine.
After several (generally 4) control cycles, the substance to be investigated is added in each further run in increasing dosage, and the height of the contraction achieved under the influence of the test substance is compared with the height of the contraction reached in the last preceding run. The concentration necessary to reduce the contraction reached in the preceding control by 50% is calculated from this (IC50). The standard application volume is 5 μl. The proportion of DMSO in the bath solution corresponds to 0.1%.

The target in experiment [1] is T1, Heme-containing sGC (recombinant soluble guanylate cyclase) (Rattus norvegicus, UniProt P20595).
T1 construct: made in house
T1 sequence (P20595 1-619): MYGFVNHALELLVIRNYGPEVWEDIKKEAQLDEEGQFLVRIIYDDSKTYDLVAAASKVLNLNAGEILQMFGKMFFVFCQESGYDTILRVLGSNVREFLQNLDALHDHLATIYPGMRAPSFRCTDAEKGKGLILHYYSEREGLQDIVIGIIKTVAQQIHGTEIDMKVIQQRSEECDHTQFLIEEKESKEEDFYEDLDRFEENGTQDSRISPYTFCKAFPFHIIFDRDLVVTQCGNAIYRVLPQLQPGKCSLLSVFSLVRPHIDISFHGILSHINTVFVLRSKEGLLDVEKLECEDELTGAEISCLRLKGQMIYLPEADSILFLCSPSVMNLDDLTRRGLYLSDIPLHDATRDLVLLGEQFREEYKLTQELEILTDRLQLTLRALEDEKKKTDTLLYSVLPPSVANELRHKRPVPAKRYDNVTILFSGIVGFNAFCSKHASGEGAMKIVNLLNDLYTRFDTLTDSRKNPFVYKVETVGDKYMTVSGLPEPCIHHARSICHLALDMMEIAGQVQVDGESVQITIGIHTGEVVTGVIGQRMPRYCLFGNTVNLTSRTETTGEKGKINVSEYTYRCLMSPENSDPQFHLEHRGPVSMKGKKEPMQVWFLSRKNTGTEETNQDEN
T1 sequence (P19686 1-690 partner): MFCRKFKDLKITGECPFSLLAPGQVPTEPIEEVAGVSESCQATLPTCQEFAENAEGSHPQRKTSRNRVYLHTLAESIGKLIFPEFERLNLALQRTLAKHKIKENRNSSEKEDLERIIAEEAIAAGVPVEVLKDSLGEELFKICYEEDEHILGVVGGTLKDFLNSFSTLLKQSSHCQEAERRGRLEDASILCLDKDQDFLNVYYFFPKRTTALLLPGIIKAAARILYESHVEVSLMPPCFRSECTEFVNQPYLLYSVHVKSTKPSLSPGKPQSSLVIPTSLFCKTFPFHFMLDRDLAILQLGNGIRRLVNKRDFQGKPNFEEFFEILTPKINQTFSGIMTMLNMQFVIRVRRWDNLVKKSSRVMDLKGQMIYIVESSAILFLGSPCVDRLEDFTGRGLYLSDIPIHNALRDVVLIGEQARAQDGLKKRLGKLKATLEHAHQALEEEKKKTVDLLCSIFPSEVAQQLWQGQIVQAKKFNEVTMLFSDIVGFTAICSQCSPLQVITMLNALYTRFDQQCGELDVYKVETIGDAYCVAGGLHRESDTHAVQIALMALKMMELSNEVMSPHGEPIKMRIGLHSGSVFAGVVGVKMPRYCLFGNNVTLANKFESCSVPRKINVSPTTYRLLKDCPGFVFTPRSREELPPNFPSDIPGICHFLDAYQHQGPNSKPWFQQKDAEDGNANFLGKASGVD
Briefly: Stimulation of recombinant soluble guanylate cyclase (sGC) in vitro, heme-containing enzyme. The class given is biochemical. An excerpt:
Hoenicka, E. M. Becker, H. Apeler, T. Sirichoke, H. Schroeder, R. Gerzer and J.-P. Stasch, “Purified soluble guanylyl cyclase expressed in a baculovirus/Sf9 system: Stimulation by YC-1, nitric oxide, and carbon oxide”, J. Mol. Med. 77 (1999), 14-23. The heme-free guanylate cyclase is obtained by adding Tween 20 to the sample buffer (0.5% in the final concentration).
The activation of sGC by a test substance is reported as n-fold stimulation of the basal activity.

SMILES strings stand for the structures. pIC50: −log10 of the molar value.

Turning to `CC(C)(C)c1ccc(COc2ccccc2/C=C/C(CCc2ccc(-c3nnn[nH]3)cc2)Cc2ccc(C(=O)O)cc2)cc1` (single isomer, unassigned) [Example 6, 4-((3E)-4-{2-[(4-tert-Butylbenzyl)oxy]phenyl}-2-{2-[4-(1H-tetrazol-5-yl)phenyl]ethyl}but-3-en-1-yl)benzoic acid], the pIC50 with saphenous artery rings is 6.92. The “Stimulation (n-fold) Heme-containing sGC Basal” value in experiment [1] (0.001 μM Example 6) was 1.9 n-fold; in experiment [1] (0.01 μM Example 6), 5.1 n-fold; in experiment [1] (0.1 μM Example 6), 20.2 n-fold; in experiment [1] (1 μM Example 6), 29.5 n-fold; in experiment [1] (10 μM Example 6), 42.1 n-fold. The “Stimulation (n-fold) Heme-containing sGC +0.1 μM DEA/NO” value was determined as 62.0 n-fold in experiment [1] (0.001 μM Example 6 + 0.1 μM DEA/NO); 66.0 n-fold in experiment [1] (0.01 μM Example 6 + 0.1 μM DEA/NO); 80.0 n-fold in experiment [1] (0.1 μM Example 6 + 0.1 μM DEA/NO); 96.2 n-fold in experiment [1] (1 μM Example 6 + 0.1 μM DEA/NO); 99.9 n-fold in experiment [1] (10 μM Example 6 + 0.1 μM DEA/NO). The “Stimulation (n-fold) Heme-containing sGC +10 μM ODQ” value in experiment [1] (0.001 μM Example 6 + 10 μM ODQ) turned out to be 4.8 n-fold; in experiment [1] (0.01 μM Example 6 + 10 μM ODQ), 25.7 n-fold; in experiment [1] (0.1 μM Example 6 + 10 μM ODQ) it was 102.7 n-fold; in experiment [1] (1 μM Example 6 + 10 μM ODQ) it was 125.8 n-fold; in experiment [1] (10 μM Example 6 + 10 μM ODQ), 135.0 n-fold. Moreover, the “Effect of combination with the NO donor DEA/NO on sGC stimulation” value in experiment [1] (combination of Example 6 and DEA/NO) is listed as “no synergistic effect”. Also, in experiment [1] (with ODQ, effect in fact increased), the “Effect of the heme-dependent sGC inhibitor ODQ on sGC activation” value is reported as “not blocked”.
